The results in this text go back to patent US9416141B2 (University of Washington through its Center for …, priority 2012, dated 2016).

The test system of this experiment is hair cells. The experiment can be described thus: Hair cell toxicity assay in zebrafish (neomycin-induced hair cell death, DASPEI staining of neuromasts). The experiment is classed as in vivo. Conditions: Danio rerio; for Emax at 2.8 µM: maximum observed @ 2.8 μM test compound; for EC50: zebrafish larvae 5-7 dpf, 1 h pre-treatment, then 200 micromolar neomycin + test compound 30 min, read-out: HC50 (concentration that would produce 50% hair cell survival); for Emax at 25 µM: maximum observed @ 25 μM test compound; for Emax at 8.3 µM: maximum observed @ 8.3 μM test compound. Put shortly:
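Zebrafish larvae 5-7 dpf pre-treated 1 h with compound (0.010-25 μM), then 30 min with 200 μM neomycin plus compound. DASPEI stained 10 neuromasts per fish, scored 0-2 (total 0-20), normalised to vehicle controls as % hair cell survival. HC50 linearly interpolated if survival reached ≥50%; HCmax is maximum survival.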

The mark [1] stands for this setting: 200 micromolar neomycin, read-out: Max HC Protection (HCmax, % hair cell survival).

Where a name gives a salt, the structure may show the parent alone.

Take `CC(C)NC(=O)CCN1CCc2c(sc(NC(=O)Nc3ccc(Cl)cc3)c2C(N)=O)C1` [Example 57, 2-[3-(4-Chlorophenyl)ureido]-6-[3-(isopropylamino)-3-oxopropyl]-4,5,6,7-tetrahydrothieno[2,3-c]pyridine-3-carboxamide hydrochloride]: the EC50 lay in the range of 1 to 10 µM. For the same molecule, the Emax at 2.8 µM under setting [1] was found to be 50%.

For `CC(C)(C)OC(=O)CN1CCc2c(sc(NC(=O)Nc3ccc(Cl)cc3)c2C(N)=O)C1` [Example 58, tert-butyl 2-{3-carbamoyl-2-[3-(4-chlorophenyl)ureido]-4,5-dihydrothieno[2,3-c]pyridin-6(7H)-yl}acetate], under setting [1], the Emax at 2.8 µM was 7%.

As to `NC(=O)c1c(NC(=O)Nc2ccc(Cl)cc2)sc2c1CCN(CCO)C2` [Example 60, 2-[3-(4-Chlorophenyl)ureido]-6-(2-hydroxyethyl)-4,5,6,7-tetrahydrothieno[2,3-c]pyridine-3-carboxamide hydrochloride], the EC50 lay in the range of 1 to 10 µM. Moreover, the Emax at 25 µM under setting [1] is 71%.

With `NC(=O)c1c(NC(=O)Nc2ccc(Cl)cc2)sc2c1CCN(CC(=O)O)C2` [Example 61, 2-{3-Carbamoyl-2-[3-(4-chlorophenyl)ureido]-4,5-dihydrothieno[2,3-c]pyridin-6(7H)-yl}acetic acid hydrochloride], the Emax at 25 µM under setting [1] was found to be 24%.

On to `CC1(CN2CCc3c(sc(NC(=O)Nc4ccc(Cl)cc4)c3C(N)=O)C2)CC1` [Example 63, 2-[3-(4-Chlorophenyl)ureido]-6-[(1-methylcyclopropyl)methyl]-4,5,6,7-tetrahydrothieno[2,3-c]pyridine-3-carboxamide hydrochloride], for which the EC50 is 1 to 10 µM. Also, under setting [1], the Emax at 2.8 µM was 54%.

As for `CCN1CCc2c(sc(NC(=O)Nc3ccc(Cl)c(C)c3)c2C(N)=O)C1` [Example 64, 2-[3-(4-chloro-3-methylphenyl)ureido]-6-ethyl-4,5,6,7-tetrahydrothieno[2,3-c]pyridine-3-carboxamide hydrochloride], the EC50 was in the range of 1 to 10 µM. Besides, the Emax at 25 µM under setting [1] was 77%.

Consider `CCN1CCc2c(sc(NC(=O)Nc3ccccc3Cl)c2C(N)=O)C1` [Example 65, 2-[3-(2-Chlorophenyl)ureido]-6-ethyl-4,5,6,7-tetrahydrothieno[2,3-c]pyridine-3-carboxamide hydrochloride], for which the Emax at 2.8 µM under setting [1] stood at 17%.

For the molecule `CCN1CCc2c(sc(NC(=O)Nc3ccc(F)cc3)c2C(N)=O)C1` [Example 66, 6-Ethyl-2-[3-(4-fluorophenyl)ureido]-4,5,6,7-tetrahydrothieno[2,3-c]pyridine-3-carboxamide hydrochloride], the EC50 is over 10 µM. The Emax at 25 µM under setting [1] amounted to 57%.

As for `CCN1CCc2c(sc(NC(=O)Nc3ccc(C#N)cc3)c2C(N)=O)C1` [Example 67, 2-[3-(4-Cyanophenyl)ureido]-6-ethyl-4,5,6,7-tetrahydrothieno[2,3-c]pyridine-3-carboxamide hydrochloride], the Emax at 8.3 µM under setting [1] came to 20%.

In the case of `CCN1CCc2c(sc(NC(=O)NC3CCCCC3)c2C(N)=O)C1` [Example 68, 2-(3-Cyclohexylureido)-6-ethyl-4,5,6,7-tetrahydrothieno[2,3-c]pyridine-3-carboxamide hydrochloride], under setting [1], the Emax at 25 µM worked out at 5%.

As to `CCN1CCc2c(sc(NC(=O)Nc3cccnc3)c2C(N)=O)C1` [Example 69, 6-Ethyl-2-[3-(pyridin-3-yl)ureido]-4,5,6,7-tetrahydrothieno[2,3-c]pyridine-3-carboxamide dihydrochloride], the Emax at 25 µM under setting [1] is 12%.

As for `CCN1CCc2c(sc(NC(=O)Nc3ccc(F)c(F)c3)c2C(N)=O)C1` [Example 70, 2-[3-(3,4-Difluorophenyl)ureido]-6-ethyl-4,5,6,7-tetrahydrothieno[2,3-c]pyridine-3-carboxamide hydrochloride], the EC50 lay within 1 to 10 µM. In addition, the Emax at 25 µM under setting [1] was 64%.

Consider `CCN1CCc2c(sc(NC(=O)Nc3cccc(F)c3)c2C(N)=O)C1` [Example 71, 6-Ethyl-2-[3-(3-fluorophenyl)ureido]-4,5,6,7-tetrahydrothieno[2,3-c]pyridine-3-carboxamide hydrochloride], for which the Emax at 25 µM under setting [1] stood at 45%.

For the molecule `CCN1CCc2c(sc(NC(=O)Nc3cccc(C#N)c3)c2C(N)=O)C1` [Example 73, 2-[3-(3-Cyanophenyl)ureido]-6-ethyl-4,5,6,7-tetrahydrothieno[2,3-c]pyridine-3-carboxamide hydrochloride], the EC50 is over 10 µM. In addition, the Emax at 25 µM under setting [1] stood at 51%.

`CCN1CCc2c(sc(NC(=O)Nc3cccc(Cl)c3Cl)c2C(N)=O)C1` [Example 74, 2-[3-(2,3-Dichlorophenyl)ureido]-6-ethyl-4,5,6,7-tetrahydrothieno[2,3-c]pyridine-3-carboxamide hydrochloride]: the EC50 is over 10 µM. The Emax at 25 µM under setting [1] was found to be 54%.

Take `CCN1CCc2c(sc(NC(=O)NCc3cccc(Cl)c3)c2C(N)=O)C1` [Example 75, 2-[3-(3-Chlorobenzyl)ureido]-6-ethyl-4,5,6,7-tetrahydrothieno[2,3-c]pyridine-3-carboxamide hydrochloride]: the Emax at 25 µM under setting [1] turned out to be 24%.

With `CCN1CCc2c(sc(NC(=O)NCc3ccc(Cl)cc3)c2C(N)=O)C1` [Example 76, 2-[3-(4-Chlorobenzyl)ureido]-6-ethyl-4,5,6,7-tetrahydrothieno[2,3-c]pyridine-3-carboxamide hydrochloride], the Emax at 25 µM under setting [1] stood at 40%.

On to `CCN1CCc2c(sc(NC(=O)Nc3cncc(Cl)c3)c2C(N)=O)C1` [Example 77, 2-[3-(5-Chloropyridin-3-yl)ureido]-6-ethyl-4,5,6,7-tetrahydrothieno[2,3-c]pyridine-3-carboxamide dihydrochloride], for which the Emax at 25 µM under setting [1] was 45%.

Regarding `CCN1CCc2c(sc(NC(=O)Nc3cnc4ccccc4c3)c2C(N)=O)C1` [Example 78, 6-Ethyl-2-[3-(quinolin-3-yl)ureido]-4,5,6,7-tetrahydrothieno[2,3-c]pyridine-3-carboxamide dihydrochloride], the EC50 is over 10 µM. Also, under setting [1], the Emax at 25 µM came out at 52%.

For the molecule `CCN1CCc2c(sc(NC(=O)Nc3ccc4ncccc4c3)c2C(N)=O)C1` [Example 79, 6-Ethyl-2-[3-(quinolin-6-yl)ureido]-4,5,6,7-tetrahydrothieno[2,3-c]pyridine-3-carboxamide dihydrochloride], the Emax at 0.3 µM (maximum observed @ 0.3 μM test compound, 200 micromolar neomycin, read-out: Max HC Protection (HCmax, % hair cell survival)) stood at 34%.

For the molecule `CCN1CCc2c(sc(NC(=O)Nc3cccc4nsnc34)c2C(N)=O)C1` [Example 80, 2-[3-(Benzo[c][1,2,5]thiadiazol-4-yl)ureido]-6-ethyl-4,5,6,7-tetrahydrothieno[2,3-c]pyridine-3-carboxamide hydrochloride], the Emax at 8.3 µM under setting [1] was found to be 36%.

With `CCN1CCc2c(sc(NC(=O)Nc3cncc4ccccc34)c2C(N)=O)C1` [Example 81, 6-Ethyl-2-[3-(isoquinolin-4-yl)ureido]-4,5,6,7-tetrahydrothieno[2,3-c]pyridine-3-carboxamide dihydrochloride], under setting [1], the Emax at 8.3 µM was found to be 32%.

Regarding `CCN1CCc2c(sc(NC(=O)Nc3cn(C)c4ccccc34)c2C(N)=O)C1` [Example 82, 6-Ethyl-2-[3-(1-methyl-1H-indol-3-yl)ureido]-4,5,6,7-tetrahydrothieno[2,3-c]pyridine-3-carboxamide hydrochloride], the Emax at 25 µM under setting [1] amounted to 23%.

Turning to `CCN1CCc2c(sc(NC(=O)Nc3ccc(C)c(Cl)c3)c2C(N)=O)C1` [Example 83, 2-[3-(3-Chloro-4-methylphenyl)ureido]-6-ethyl-4,5,6,7-tetrahydrothieno[2,3-c]pyridine-3-carboxamide hydrochloride], the EC50 was 1 to 10 µM. Under setting [1], the Emax at 25 µM came out at 63%.

As to `CCN1CCc2c(sc(NC(=O)Nc3cccc4c3ccn4C)c2C(N)=O)C1` [Example 84, 6-Ethyl-2-[3-(1-methyl-1H-indol-4-yl)ureido]-4,5,6,7-tetrahydrothieno[2,3-c]pyridine-3-carboxamide hydrochloride], the Emax at 25 µM under setting [1] came to 4%.

On to `CCN1CCc2c(sc(NC(=O)Nc3ccc4c(c3)OC(F)(F)O4)c2C(N)=O)C1` [Example 85, 2-[3-(2,2-Difluorobenzo[d][1,3]dioxol-5-yl)ureido]-6-ethyl-4,5,6,7-tetrahydrothieno[2,3-c]pyridine-3-carboxamide hydrochloride], for which the EC50 fell in the range of 1 to 10 µM. Further, the Emax at 25 µM under setting [1] is 63%.

With `Cc1c(CN2CCOCC2)sc(NC(=O)Nc2ccc(Cl)cc2)c1C(N)=O` [Example 86, 2-[3-(4-Chlorophenyl)ureido]-4-methyl-5-(morpholinomethyl)thiophene-3-carboxamide hydrochloride], the EC50 lay within 1 to 10 µM. Further, the Emax at 8.3 µM under setting [1] turned out to be 51%.

As to `CCN1CCc2c(sc(NC(=O)Nc3ccc(Cl)cc3)c2C#N)C1` [Example 87, 1-(4-Chlorophenyl)-3-(3-cyano-6-ethyl-4,5,6,7-tetrahydrothieno[2,3-c]pyridin-2-yl)urea], the Emax at 25 µM under setting [1] is 11%.

As to `CCN1CCc2c(sc(NC(=O)Nc3ccc(C(=O)c4ccccc4)cc3)c2C(N)=O)C1` [Example 88, 2-[3-(4-Benzoylphenyl)ureido]-6-ethyl-4,5,6,7-tetrahydrothieno[2,3-c]pyridine-3-carboxamide], the EC50 was 1 to 10 µM. Besides, the Emax at 25 µM under setting [1] is 88%.

On to `NC(=O)c1c(NC(=O)Nc2ccc(Cl)cc2)sc2c1CCN(CC(F)(F)F)C2` [Example 89, 2-[3-(4-Chlorophenyl)ureido]-6-(2,2,2-trifluoroethyl)-4,5,6,7-tetrahydrothieno[2,3-c]pyridine-3-carboxamide], for which, under setting [1], the Emax at 8.3 µM worked out at 18%.
